Experimental data from PubChem BioAssay (NCI).
Several values for one entry are separate records, joined by “and”; a condition that tells them apart may be missing. Equal values may be shown once.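 Step 1: Grow cells in 96-well plates. Step 2: Expose to compound for 48 hours at 5 concentrations. Step 3: Interpolate endpoints linearly; if unreached, use highest concentration. Here, GI50 denotes the concentration required for 50% inhibition of growth. TGI marks complete inhibition of growth.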

Columns and labels:
Assay in all cases: inhibition of tumour cell growth, NCI panel, 48 h
ACHN renal = tested on: ACHN renal
HCC-2998 colon = tested on: HCC-2998 colon
HCT-15 colon = tested on: HCT-15 colon
M14 melanoma = tested on: M14 melanoma
NCI-H226 lung = tested on: NCI-H226 lung
OVCAR-3 ovarian = tested on: OVCAR-3 ovarian
SN12C renal = tested on: SN12C renal
U251 CNS = tested on: U251 CNS
UACC-62 melanoma = tested on: UACC-62 melanoma
UO-31 renal = tested on: UO-31 renal

Row | SMILES | TGI (ACHN renal) | TGI (HCC-2998 colon) | TGI (HCT-15 colon) | TGI (M14 melanoma) | TGI (NCI-H226 lung) | TGI (OVCAR-3 ovarian) | TGI (SN12C renal) | TGI (U251 CNS) | TGI (UACC-62 melanoma) | TGI (UO-31 renal) | GI50 (ACHN renal) | GI50 (HCC-2998 colon) | GI50 (M14 melanoma) | GI50 (NCI-H226 lung) | GI50 (UACC-62 melanoma) | GI50 (HCT-15 colon) | GI50 (OVCAR-3 ovarian) | GI50 (SN12C renal) | GI50 (U251 CNS) | GI50 (UO-31 renal)
1 | CC1=C(C(=O)Nc2ccc(Cl)c(C(=O)OC(C)C)c2)SCCO1 | > 100 µM | 75 µM | > 100 µM | > 100 µM | > 77.4 µM | > 100 µM | > 100 µM | 81.3 µM | 93.2 µM | 73 µM | – | – | – | – | – | – | – | – | – | –
2 | COc1ccc(/C=C/C(=O)c2sc(-n3nc(-c4ccccc4)cc3-c3ccccc3)nc2C)cc1 | > 100 µM | > 100 µM | > 100 µM | > 100 µM | > 100 µM | > 100 µM | > 100 µM | > 100 µM | > 100 µM | > 100 µM | > 100 µM | > 100 µM | > 100 µM | > 100 µM | > 100 µM | – | – | – | – | –
3 | CC(=O)c1c(C)[nH]c(-c2nc3ccc(N4CCN(C)CC4)cc3[nH]2)c1-c1ccccc1 | 12.3 µM | 12.8 µM | 18.9 µM | 19.4 µM | 49.5 µM | 15 µM | 23.2 µM | 72.6 µM | 12.7 µM | 11.8 µM | 0.876 µM | 1.54 µM | 1.1 µM | 1.93 µM | 0.274 µM | 0.719 µM | 1.11 µM | 2.34 µM | 3.53 µM | 0.374 µM
4 | CCCCCCCCCCCC[n+]1ccc2ccccc2c1 | 7.56 µM | 2.32 µM | 13.8 µM | 2.79 µM | 3.85 µM | 1.89 µM | 2.65 µM | 1.42 µM | 1.63 µM | 3.23 µM | 1.89 µM | 1.07 µM | 0.588 µM | 1.1 µM | 0.343 µM | 2.6 µM | 0.579 µM | 1.17 µM | 0.348 µM | 1.19 µM
5 | COc1cc(CCc2ccc(N)cc2)cc(OC)c1OC | > 100 µM | > 100 µM | > 100 µM | > 100 µM | > 100 µM | > 100 µM | > 100 µM | > 100 µM | > 89.8 µM | > 93.1 µM | – | – | – | – | – | – | – | – | – | –
6 | CSc1ccc2c(c1)C(N1CCN(C)CC1)Cc1ccccc1S2 (stereo unspecified) | 12.2 µM and 3.95 µM | 25.9 µM and 3.08 µM | 16.4 µM and 7.41 µM | 3.77 µM and 3.53 µM | 24.9 µM and 3.94 µM | 28 µM and 7.22 µM | 18.9 µM and 10.8 µM | 18.6 µM and 2.95 µM | 4.2 µM and 3.3 µM | 13.8 µM and 5.44 µM | 1.96 µM | 1.65 µM | – | 1.8 µM | 1.8 µM | 2.83 µM | 2.67 µM | 2.81 µM | 1.53 µM | 1.8 µM
7 | COc1ccc(N(C)c2nc(N)nc3sc4c(c23)CCCC4)cc1 | 14.6 µM | 12 µM | 13 µM | 11.4 µM | 22.3 µM | 14.2 µM | 14 µM | 15 µM | 15.8 µM | 14.2 µM | < 0.01 µM | < 0.0146 µM | < 0.01 µM | 0.616 µM | < 0.01 µM | < 0.01 µM | 0.025 µM | < 0.01 µM | < 0.0114 µM | < 0.01 µM
8 | Cc1cc(Cl)nc(N(CCCNc2ccnc3cc(Cl)ccc23)Cc2ccco2)n1 | 12 µM | 5.67 µM | 7.61 µM | 4.08 µM | 6.91 µM | 10.3 µM | 9.87 µM | 6.15 µM | 6.8 µM | 5.93 µM | 3 µM | 1.97 µM | 1.88 µM | 1.3 µM | 2.32 µM | 1.99 µM | 2.48 µM | 2.45 µM | 2.07 µM | 1.08 µM
9 | NC(=S)c1c(N)n(C2OC(CO)C(O)C2O)c2ncnc(N)c12 (stereo unspecified) | > 100 µM | 0.801 µM | 0.435 µM | 0.648 µM | 16 µM | 1.2 µM | > 100 µM | > 100 µM | 1.37 µM | 2.33 µM | 0.268 µM | 0.204 µM | 0.178 µM | 0.695 µM | 0.263 µM | 0.0573 µM | 0.287 µM | 0.208 µM | 0.496 µM | 0.27 µM
10 | CO[C@H]1C[C@@H]2CC[C@@H](C)[C@@](O)(O2)C(=O)C(=O)N2CCCC[C@H]2C(=O)O[C@H]([C@H](C)C[C@@H]2CC[C@@H](OCCO)[C@H](OC)C2)CC(=O)[C@H](C)C=C(C)[C@@H](O)[C@@H](OC)C(=O)[C@H](C)C[C@H](C)/C=C/C=C/C=C1C | 18.8 µM | 22.1 µM | 18.5 µM | 20.5 µM | 23.5 µM | 16.7 µM | 31.1 µM | 18.1 µM | 19.9 µM | 14.5 µM | < 0.01 µM | 4.48 µM | 3.12 µM | – | 0.342 µM | < 0.0115 µM | < 0.01 µM | 1.82 µM | < 0.0108 µM | < 0.01 µM
11 | CCCCCCCCCCCCCC[C@@H](O)[C@H]1CC[C@H]([C@H]2CC[C@H]([C@H](O)CCCCCC[C@@H](O)CC3=C[C@H](C)OC3=O)O2)O1 | – | > 25 µM | 5.38 µM and > 25 µM | 3.44 µM and > 25 µM | 5.04 µM and > 25 µM | 3.21 µM and > 25 µM | 6.47 µM and > 25 µM | > 25 µM | 4.5 µM and > 25 µM | 2.59 µM and > 25 µM | 1.02 µM | – | 1.74 µM | 1.71 µM | > 25 µM | 2.42 µM | 1.53 µM | > 25 µM | 2.06 µM | 1.21 µM
12 | O=[N+]([O-])c1cccc(C2CC(c3ccccc3)=Nc3ccccc3S2)c1 (stereo unspecified) | 28.5 µM | 31 µM | 18.7 µM | 44.6 µM | > 100 µM | 26.1 µM | 26.8 µM | 21.2 µM | 44.1 µM | 21.9 µM | 13.9 µM | 16 µM | 19.2 µM | 72.4 µM | 12.1 µM | 4.84 µM | 13.3 µM | 13.4 µM | 8.48 µM | 9.61 µM
13 | CN(CC(=O)N(Cc1ccc(C2CCCCC2)cc1)c1ccc(C(=O)O)cc1)S(=O)(=O)c1c(F)c(F)c(F)c(F)c1F | 3.15 µM | 3.22 µM | 3.36 µM | 3.59 µM | 5.51 µM | 3.19 µM | 4.88 µM | 3.31 µM | 3.46 µM | 4.73 µM | 1.74 µM | 1.76 µM | 1.91 µM | 2.49 µM | 1.92 µM | 1.74 µM | 1.79 µM | 2.22 µM | 1.86 µM | 1.91 µM
